{"source": "patent US20230183303A1", "about": "“Therapeutic Potential of Peptides from the \"Netrin-Like\" Domain of the FRZB Protein” (Université de Lorraine, priority 2020, published 2023)", "key": {"ATDC5 micromasses": {"tested_on": "ATDC5 micromasses", "assay": "Glycosaminoglycan/proteoglycan quantification (Alcian blue staining) in ATDC5 micromasses", "type": "cell-based, mouse", "procedure": "Mouse chondrogenic ATDC5 cells (cartilage-specific chondrogenic strain) were cultured until confluent in maintenance medium containing 1:1 Dulbecco's modified Eagle's medium (DMEM): Ham's F-12 mix (Gibco) supplemented with 1% antibiotic (AB, Penicillin-Streptomycin, Gibco), 5% fetal bovine serum (FBS) (Gibco) and enriched with […] human transferrin (Sigma) and 30 nM sodium selenite (Sigma). Cells were trypsinized, washed and resuspended at 2.10^7 cells/mL in a chondrogenic medium made of maintenance medium enriched by 1× of ITS premix (resulting in 10 μg/mL insulin, 10 μg/mL human transferrin and 30 nM sodium selenite) (Life technologies). One droplet of cell suspension (10 μL) was placed at the center of each well of a 24-well plate. Cells were allowed to adhere for 2 h at 37° C., followed by addition of 500 μL chondrogenic medium supplemented. […] After 14 days, induction of hypertrophic differentiation and mineralization was induced by the mineralization medium made of α-MEM medium (Gibco) containing 1% AB, 5% FBS, 5 μg/ml human transferrin, 1× of ITS premix, 50 μg/ml ascorbic acid-2-phosphate (AA) (Sigma) and 10 mM β-glycerophosphate (BGP) (Sigma). […] Micromasses were collected at time points 1, 7, 14 21 and 28 days. Each time point was processed in three technical replicates. The medium was changed every other day. […] The genes of interest were articular chondrocyte markers (aggrecan, type 2 collagen (col2a1)), YAP/TAZ target genes (ctgf, ankrd) and pro-catabolic enzymes involved in the pathophysiology of OA (mmp3, mmp13).\nMicromasses were washed with PBS and fixed with 95% ice-cold ethanol for 30 min at 4° C. for staining. After washing with distilled water, micromasses were stained with Alcian Blue (0.1% Alcian Blue 8GX, (Sigma)), washed three times with distilled water to remove unbound staining and air-dried."}, "Wnt/β-catenin pathway": {"tested_on": "Wnt/β-catenin pathway", "assay": "Western blot of Wnt/β-catenin pathway activation in ATDC5 micromasses", "type": "cell-based, mouse", "conditions": "PEP16 at 100 and 300 ng/mL; day 1, 7, 14, 21; during chondrogenesis", "procedure": "Mouse chondrogenic ATDC5 cells (cartilage-specific chondrogenic strain) were cultured until confluent in maintenance medium containing 1:1 Dulbecco's modified Eagle's medium (DMEM): Ham's F-12 mix (Gibco) supplemented with 1% antibiotic (AB, Penicillin-Streptomycin, Gibco), 5% fetal bovine serum (FBS) (Gibco) and enriched with […] human transferrin (Sigma) and 30 nM sodium selenite (Sigma). Cells were trypsinized, washed and resuspended at 2.10^7 cells/mL in a chondrogenic medium made of maintenance medium enriched by 1× of ITS premix (resulting in 10 μg/mL insulin, 10 μg/mL human transferrin and 30 nM sodium selenite) (Life technologies). One droplet of cell suspension (10 μL) was placed at the center of each well of a 24-well plate. Cells were allowed to adhere for 2 h at 37° C., followed by addition of 500 μL chondrogenic medium supplemented. […] After 14 days, induction of hypertrophic differentiation and mineralization was induced by the mineralization medium made of α-MEM medium (Gibco) containing 1% AB, 5% FBS, 5 μg/ml human transferrin, 1× of ITS premix, 50 μg/ml ascorbic acid-2-phosphate (AA) (Sigma) and 10 mM β-glycerophosphate (BGP) (Sigma). […] Micromasses were collected at time points 1, 7, 14 21 and 28 days. Each time point was processed in three technical replicates. The medium was changed every other day. […]"}, "MMP13": {"tested_on": "MMP13", "assay": "MMP13 enzymatic activity in culture supernatants of mouse articular chondrocytes", "type": "cell-based", "conditions": "PEP16 at 300 ng/mL with IL1β at 100 pg/mL; 24 h", "procedure": "(§1) Mouse articular chondrocyte (MACs) were isolated from femoral heads by enzymatic digestion of whole femoral head caps. Samples were washed three times in 1% AB/phosphate buffered saline (PBS) and incubated with 2 mg/ml pronase (Roche)/DMEM-F12 at 37° C. for 1 h at slow rotation 100 rpm followed by a 3 h incubation with 1.5 mg/ml collagenase B (Roche)/DMEM-F12 at 37° C. Cells were seeded at 1×10^6 cells/[…], and cultured for 7 to 14 days in growth medium DMEM-F12, containing 1% AB (Gibco), 10% FBS (Gibco) and 5% L-glutamine (Thermoscientific). Passage 1 cells were utilized for the experiments. The culture supernatants were then harvested in order to perform MMP13 enzymatic activity assay. The evaluation of the expression of genes of interest included articular chondrocyte markers (aggrecan, type 2 collagen (col2a1)), YAP/TAZ target genes (ankrd) and pro-catabolic enzyme involved in the pathophysiology of OA (mmp3).\nThe MMP13 enzymatic activity was assessed using the MMP13 fluorogenic substrate (Merck Millipore). Briefly, culture supernatants harvested at the end of the different experiments were mixed with 1.5 mM of 4-aminophenylmercuric acetate, and incubated for 1 h at 37° C., in order to turn every pro-MMPs into active MMPs. […] Fluorescence was evaluated using the following parameters, excitation 325 nm and emission 393 nm, on the Varioskan Flash device (Thermo Fisher Scientific). […]"}, "[1]": {"tested_on": "mouse articular chondrocytes", "assay": "qRT-PCR relative expression of genes of interest in mouse articular chondrocytes", "type": "cell-based", "procedure": "as §1\nTotal RNA was isolated using the Nucleospin RNA II kit (Macherey-Nagel) and reverse-transcribed using the MMLV reverse transcriptase (Thermo Fisher Scientific) following the manufacturers' instructions. The iTaq SYBR green qPCR master mix (BioRad) was used to assess the mRNA expression of target genes of interest. Primer sequences can be provided upon request. The following PCR conditions were used: 1 minute at 95° C., 40 cycles of 15 sec of denaturation at 95° C., followed by 1 minute of annealing-elongation at 60° C. Melting curve analysis was performed to determine the amplification of the specific product. Results were expressed using the comparative threshold method and were normalized to housekeeping gene PPIA (Peptidylprolyl Isomerase A) mRNA level for ATDC5 cells and MACs, or normalized to housekeeping gene S29 (ribosomal protein S29) mRNA level for MC3T3-E1 cells. The Via7 real-time PCR system (Thermo Fisher Scientific) was used for qRT-PCR measurements."}, "CamKII pathway": {"tested_on": "CamKII pathway", "assay": "Western blot of CamKII pathway activation in MC3T3-E1 cells", "type": "cell-based, mouse", "conditions": "PEP16 at 300 or 1000 ng/mL; early osteogenesis stages", "from_the_text": "(§2) Each time point was processed in three technical replicates. The medium was changed every two days."}, "MC3T3-E1 cells": {"tested_on": "MC3T3-E1 cells", "assay": "Quantification of mineralization (Alizarin Red) in MC3T3-E1 cells", "type": "cell-based, mouse", "conditions": "PEP16 at 100 or 300 ng/mL; day 21; absorbance 405 nm", "procedure": "as §2\nCells were washed with PBS and fixed with 95% ice-cold ethanol for 30 min at 4° C. for staining. After washing with distilled water, cells were stained with Alizarin Red staining (1% Alizarin Red S (Sigma)), washed three times with distilled water to remove unbound staining and air-dried. Quantification of the staining was performed by dissolving the mineral content in 800 μl of 10% acetic acid for 30 minutes. Then, the wells were scraped, the content of each well was harvested in a separate tube and vortexed for 30 seconds. Each tube was heated at 85° C. for 10 minutes, then put on ice for 5 minutes. Finally, tubes were centriguated at 13000 rpm for 15 minutes, the liquid phase was harvested and mixed with 100 μl of 10% ammonium hydroxide. Absorbance was measured at 405 nm with a spectrophotometer (Varioskan Flash, Thermo Fisher Scientific).\nThe mineralization level was evaluated by a biochemical assay as previously described after 21 days of differentiation culture. Results are representative of 3 experiments."}, "[2]": {"tested_on": "8×YAP response elements (8×GTIIC reporter)", "conditions": "PEP16 at 30 ng/ml; 24 h", "experimental": "Results were normalized by-cotransfecting each of the above plasmid with the tyrosine kinase-renilla luciferase plasmid (Promega). Transfections were carried out using the Dharmafect kb transfection reagent (Fisher Scientific). Briefly, reporter plasmids and transfection reagent were diluted in serum-free medium, and then the diluted Dharmafect kb was added to the plasmids for an incubation time of 10 minutes at room temperature. During that time, cells were rinsed with PBS and were placed in fresh maintenance medium. When incubation was over, the mixture of transfection reagent-plasmids was dispensed in each well. Stimulations (with Wnt3a and/or PEP16 and/or PEP16bis) were carried out the next day."}, "[3]": {"conditions": "PEP16 at 300 ng/mL and wnt3a at 100 ng/mL, 24 and 48 h"}}}
{"sequence": "DRLGKKVKRWDMKLRH (PEP16)", "values": [{"measurement": "proteoglycans deposition in the extracellular matrix (Alcian blue, absorbance 650 nm)", "setting": "ATDC5 micromasses; 300 ng/ml, 14 days, vs control cells", "result": "significantly increase the proteoglycans deposition"}, {"measurement": "glycosaminoglycans quantification (accumulation in the extracellular matrix)", "setting": "ATDC5 micromasses; PEP16 at 30, 100, 300 ng/mL, Alcian blue at day 28, blue pixels and biochemical quantification", "result": "significantly increased the accumulation of glycosaminoglycans"}, {"measurement": "Wnt/β-catenin pathway activation (active protein form over total protein form)", "setting": "Wnt/β-catenin pathway", "result": "reduced in the activation of the Wnt/β-catenin pathway"}, {"measurement": "IL1β-induced MMP13 enzymatic activity in culture supernatant", "setting": "MMP13", "result": "significantly reduced"}, {"measurement": "expression of Ankrd, a target gene of the Hippo/YAP/TAZ pathway", "setting": "[1]; 300 ng/mL, 12 h of stimulation", "result": "capable of reducing the expression"}, {"measurement": "expression of MMP3 induced by Wnt3a", "setting": "[1]; 300 ng/mL, wnt3a at 100, 50, 30 ng/mL, 24 h of stimulation", "result": "counteract the inductive effects of Wnt3a"}, {"measurement": "relative expression level of aggrecan (decrease induced by Wnt3a)", "setting": "[1]; [3]", "result": "had a tendancy to counteract"}, {"measurement": "relative expression level of col2a1 (type 2 collagen; decrease induced by Wnt3a)", "setting": "[1]; [3]", "result": "had a tendancy to counteract"}, {"measurement": "increase of NGF induced by Wnt3a", "setting": "[1]; PEP16 with Wnt3a, data not shown", "result": "had a tendancy to counteract"}, {"measurement": "CamKII pathway activation", "setting": "CamKII pathway", "result": "efficiently increased the activation"}, {"measurement": "mineralization quantification (mineral content in the extracellular matrix)", "setting": "MC3T3-E1 cells", "result": "significantly increased the accumulation of mineral content"}, {"measurement": "activity of the Hippo/YAP/TAZ pathway in a luciferase-type reporter system (Firefly/renilla ratio)", "setting": "[2]", "result": "significantly reduced the activity"}]}
